The target of the assay is Adenosine kinase (Homo sapiens) (UniProt P55263).
Adenosine kinase (Homo sapiens), sequence (P55263 2-362 limits assumed): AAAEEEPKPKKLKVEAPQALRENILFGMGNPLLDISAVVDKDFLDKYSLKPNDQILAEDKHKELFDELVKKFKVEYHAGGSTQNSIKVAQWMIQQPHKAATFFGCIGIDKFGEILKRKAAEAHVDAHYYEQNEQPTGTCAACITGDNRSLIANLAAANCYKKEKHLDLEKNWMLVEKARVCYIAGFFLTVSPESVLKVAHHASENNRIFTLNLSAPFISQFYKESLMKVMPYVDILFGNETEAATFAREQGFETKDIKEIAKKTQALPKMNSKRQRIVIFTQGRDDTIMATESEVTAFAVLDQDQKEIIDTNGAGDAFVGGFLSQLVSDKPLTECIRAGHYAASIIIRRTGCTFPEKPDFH

Description: Inhibition of adenosine kinase

Turning to `CSc1cn([C@@H]2O[C@H](C)[C@@H](O)[C@H]2O)c2ncnc(N)c12`, the log(10'3/IC50) came out at 2.87.
As for `NC[C@H]1O[C@@H](n2cc(Br)c3c(N)ncnc32)[C@H](O)[C@@H]1O`, the figure is 6.7; as for `[N-]=[N+]=NC[C@H]1O[C@@H](n2cc(I)c3c(Cl)ncnc32)[C@H](O)[C@@H]1O`, 5.05.
As for `C[C@H]1O[C@@H](n2cc(I)c3c(S)ncnc32)[C@H](O)[C@@H]1O`, the figure is 2.19; as for `CC[C@H]1O[C@@H](n2cc(Br)c3c(N)ncnc32)[C@H](O)[C@@H]1O`, 3.3.
The molecule `Nc1ncnc2c1c(Br)cn2[C@@H]1O[C@H](CO)[C@@H](O)[C@H]1O` gave a log(10'3/IC50) of 3.92.
As for `[N-]=[N+]=NC[C@H]1O[C@@H](n2cc(Br)c3c(Cl)ncnc32)[C@H](O)[C@@H]1O`, the figure is 4.
As for `C=CCSc1ncnc2c1c(I)cn2[C@@H]1O[C@H](C)[C@@H](O)[C@H]1O`, the log(10'3/IC50) came out at 2.55.
As for `CSc1cn([C@@H]2O[C@H](C)[C@@H](O)[C@H]2O)c2ncnc(Cl)c12`, the figure is 4.15; as for `COC[C@H]1O[C@@H](n2cc(I)c3c(N)ncnc32)[C@H](O)[C@@H]1O`, 2.92.
The value for `N#Cc1cn([C@@H]2O[C@H](CO)[C@@H](O)[C@H]2O)c2ncnc(N)c12` was 3.51; that for `CSc1ncnc2c1c(I)cn2[C@@H]1O[C@H](C)[C@@H](O)[C@H]1O` was 4.35; that for `C[C@H]1O[C@@H](n2cc(I)c3c(Cl)ncnc32)[C@H](O)[C@@H]1O` was 5.52.
Turning to `NC[C@H]1O[C@@H](n2cc(I)c3c(Cl)ncnc32)[C@H](O)[C@@H]1O`, the log(10'3/IC50) was 7.
`OC[C@H]1O[C@@H](n2cc(I)c3c(Cl)ncnc32)[C@H](O)[C@@H]1O` registered a log(10'3/IC50) of 4.62.
The value for `NC[C@H]1O[C@@H](n2cc(I)c3c(N)ncnc32)[C@H](O)[C@@H]1O` was 6.22; that for `Nc1ncnc2c1c(Cl)cn2[C@@H]1O[C@H](CO)[C@@H](O)[C@H]1O` was 3.68.
The value for `CCCCSc1ncnc2c1c(I)cn2[C@@H]1O[C@H](C)[C@@H](O)[C@H]1O` was 3.
The value for `C[C@H]1O[C@@H](n2cc(I)c3c(SCc4ccccc4)ncnc32)[C@H](O)[C@@H]1O` was 3; that for `C[C@H]1O[C@@H](n2cc(I)c3c(SCc4ccc([N+](=O)[O-])cc4)ncnc32)[C@H](O)[C@@H]1O` was 2.7.
In the case of `CC[C@H]1O[C@@H](n2cc(I)c3c(N)ncnc32)[C@H](O)[C@@H]1O`, the log(10'3/IC50) came out at 4.22.
As for `Cc1cn([C@@H]2O[C@H](C)[C@@H](O)[C@H]2O)c2ncnc(Cl)c12`, the figure is 3.27; as for `NC[C@H]1O[C@@H](n2ccc3c(N)ncnc32)[C@H](O)[C@@H]1O`, 1.89.
For `C=C[C@H]1O[C@@H](n2cc(I)c3c(N)ncnc32)[C@H](O)[C@@H]1O`, the log(10'3/IC50) amounted to 4.
As for `C[C@H]1O[C@@H](n2cc(C#N)c3c(N)ncnc32)[C@H](O)[C@@H]1O`, the figure is 3.51; as for `C[C@H]1O[C@@H](n2cc(Br)c3c(Cl)ncnc32)[C@H](O)[C@@H]1O`, 4.3; as for `[N-]=[N+]=NC[C@H]1O[C@@H](n2cc(Br)c3c(N)ncnc32)[C@H](O)[C@@H]1O`, 4.2.
Consider `[N-]=[N+]=NC[C@H]1O[C@@H](n2cc(I)c3c(N)ncnc32)[C@H](O)[C@@H]1O`, for which the log(10'3/IC50) stood at 4.46.
As for `CNc1ncnc2c1c(I)cn2[C@@H]1O[C@H](CO)[C@@H](O)[C@H]1O`, the figure is 2.92.

Source of the values: ChEMBL document CHEMBL1157179, “A CoMSIA study on the adenosine kinase inhibition of pyrrolo[2,3-d]pyrimidine nucleoside analogues” (Bioorg Med Chem, 2008).
